“And” between values parts separate entries of the source, which are not always exact repeats. Identical values can stand only once. Like-named read-outs stand apart in the source and are kept apart here.
Assays:
FGF-2 [1] = molecular target: T1, FGF-2 (Homo sapiens, UniProt P09038); experiment: BLI competition assay with immobilized native HS for FGF-2 binding
Excerpt: We next examined the functional relevance of the synthetic HS glycomimetics by testing their ability to compete with native HS for FGF-2 binding using competition assays. Although direct binding assays measure the intrinsic affinity of HS glycomimetics for FGF-2, they are limited in representing the complex, multimolecular environment of biological systems. In vivo, FGF-2 activity is tightly regulated by its interactions with GAGs, which are abundant on cell surfaces and in the ECM. These interactions stabilize FGF-2 and facilitate its dimerization with FGF receptors (FGFRs), a requirement for effective signal transduction. , Thus, therapeutic candidates targeting FGF-2 must be evaluated not only for direct binding but also for their ability to modulate or disrupt GAG-mediated interactions. Therefore, we performed competition assays in which native HS was immobilized on the sensor surface. Solutions containing a fixed concentration of FGF-2 (50 nM) were premixed with varying concentrations of HS glycomimetics, functioning as inhibitors in this context, (M1, D1, D2, D3, and T1) and also with the heparin hexasaccharide (H1) (GlcNS6S-GlcA-GlcNS3S6S-IdoA2S-GlcNS6S-GlcA), a well-studied HS glycomimetic in the literature, as a positive control (Figure B). […] The progressive decrease in signal intensity with increasing inhibitor concentration directly reflects competition with immobilized HS for FGF-2 binding.

PC12 cells = experiment: NGF-mediated neurite outgrowth on sugar-coated substrates; assay type: cell-based, rat; conditions: PC12 cells on coated surface, NGF 50 ng/mL; control 108 μm
Excerpt: We next examined the NGF-induced neuritogenic potential of the HS glycomimetics to determine whether they could potentiate neurotrophin-driven neuronal differentiation. To mimic the native role of HS proteoglycans in the ECM, which spatially sequester and present growth factors, we immobilized D2 and also native HS as a positive control onto culture substrates and evaluated its capacity to modulate neural maturation in two well-established neuronal cell models of different species origins, rat-derived PC12 cells and human-derived SH-SY5Y cells. These models represent distinct stages of neuronal differentiation and maturation, and the choice enabled us to compare cellular responses across species, thereby enhancing the translational relevance of our findings. PC12 cells respond to NGF by exiting the cell cycle and extending neurites, while SH-SY5Y cells serve as a model for later-stage maturation and neurite elongation. , […]
In PC12 cells, which serve as a classical model for NGF-induced neuronal differentiation, the presence of both immobilized D2 and native HS coatings led to notable morphological changes relative to control conditions (Figure C). […] Although images used for quantification were selected from well-dispersed regions, we also observed instances of cell clustering in both control and D2 groups (Figure S6.1, Supporting Information). […]

[2] = test system: rat dissociated hippocampal neurons; experiment: Neurite morphometry in dissociated hippocampal neurons; assay type: cell-based; conditions: 24 h treatment, 1 day in vitro, D2 1 μM, FGF-2 40 ng/mL, mean ± SEM
Description: In the pursuit of this, we used rat dissociated hippocampal neurons as an in vitro model system. We assessed the impact of HS glycomimetics on neuronal morphology, using immunofluorescence imaging and quantitative morphometric analysis, and on synaptic functionality through electrophysiological monitoring of spontaneous neuronal activity.
During the first day of differentiation in vitro (Table S7.1 in SI), neurons were treated for 24 h with either control medium, glycomimetic D2 (1 μM), FGF-2 (40 ng/mL) alone, or a combination of FGF-2 and D2 (40 ng/mL and 1 μM, respectively). After treatments, cultures were fixed and immuno-labeled with antibodies against the neuronal marker β-Tubulin III to study cell morphology. […] Quantitative analysis further corroborated these observations (Figure B–C).

[3] = test system: citrated pooled rat plasma; experiment: Activated partial thromboplastin time (aPTT) assay
Excerpt: To complement these findings, we performed an activated partial thromboplastin time (aPTT) assay in citrated pooled rat plasma to assess the overall impact of the compounds on the intrinsic coagulation pathway. This global clotting assay measures the time required for fibrin formation and is sensitive to anticoagulant effects. Figure F,G compare the effects of UFH, heparan sulfate, Fondaparinux, and the synthetic glycomimetics when supplemented into citrated plasma. […] As expected, UFH produced a strong, concentration-dependent anticoagulant response, prolonging the mean clotting time to 271 s at the highest concentration tested, while heparan sulfate and Fondaparinux induced weaker but measurable effects (83 and 37 s, respectively). […] The results further confirm that selective sulfation patterns can decouple GF recognition from anticoagulant function, an essential prerequisite for their translational application in regenerative medicine. […] These interactions are in line with nonspecific electrostatic binding, a feature of highly sulfated oligosaccharides known to engage different proteins via charge-based, rather than specific, biologically targeted interactions. Thus, to avoid potential off-target effects associated with highly sulfated analogues, we selected the disaccharide D2 for subsequent biological experiments.

FGF-1 [4] = molecular target: T2, FGF-1 (Homo sapiens, UniProt P05230); experiment: Far-UV CD spectroscopy and CD thermal denaturation; conditions: CD thermal denaturation 10–90 °C; protein with sugar, 1:3 molar ratio
Excerpt: (§1) To select a lead compound, we complemented the affinity data with a series of studies evaluating the structural and functional implications of protein-HS glycomimetic interactions. We assessed the therapeutic safety profile of our HS glycomimetics. We also employed circular dichroism (CD) spectroscopy to assess secondary structural changes in protein conformation upon binding to native HS and HS glycomimetics. Since native HS alone produces only a minimal signal, it was ensured that its contribution would not interfere with protein-sugar complex spectra. Therefore, only the far-UV CD spectra of bare proteins and their sugar complexes were recorded. […] Upon incubation with sugars (1:3 molar ratio), significant spectral changes were observed, indicating sugar-induced alterations in secondary structure (Figure A).
(§2) We also evaluated the thermal stability of the proteins and their sugar complexes by CD-based thermal denaturation experiments. The spectra were recorded across a temperature range of 10–90 °C (Figure B). For all proteins except AT-III, the unfolding profiles were analyzed to determine the melting temperature (T m), representing the midpoint of the transition from the folded to the unfolded state, an indicator of structural integrity and resistance to thermal denaturation. The calculated values are compiled in Table .

FGF-2 [5] = molecular target: T1, FGF-2; experiment: Far-UV CD spectroscopy and CD thermal denaturation; conditions: CD thermal denaturation 10–90 °C; protein with sugar, 1:3 molar ratio
Excerpt: as §1, §2

SH-SY5Y cells = experiment: NGF-mediated neuronal maturation on sugar-coated substrates, β-tubulin III fluorescence; assay type: cell-based, human; conditions: SH-SY5Y cells on coated surface, NGF 50 ng/mL; control 1.43
Excerpt: We next examined the NGF-induced neuritogenic potential of the HS glycomimetics to determine whether they could potentiate neurotrophin-driven neuronal differentiation. To mimic the native role of HS proteoglycans in the ECM, which spatially sequester and present growth factors, we immobilized D2 and also native HS as a positive control onto culture substrates and evaluated its capacity to modulate neural maturation in two well-established neuronal cell models of different species origins, rat-derived PC12 cells and human-derived SH-SY5Y cells. These models represent distinct stages of neuronal differentiation and maturation, and the choice enabled us to compare cellular responses across species, thereby enhancing the translational relevance of our findings. PC12 cells respond to NGF by exiting the cell cycle and extending neurites, while SH-SY5Y cells serve as a model for later-stage maturation and neurite elongation. ,
In this context, the immobilization of D2 onto culture substrates provided a means to investigate how its presentation as an ECM-like component influences neurotrophic responses, particularly in combination with NGF. In both cell lines, D2 and native HS were applied to the substrate prior to seeding, thereby mimicking its natural role as a structural component of the ECM. […]

FGF-1 [6] = molecular target: T2, FGF-1; experiment: BLI binding assay, sugars immobilized, protein as analyte; conditions: steady-state affinity curve fitting
Description: (§3) We evaluated the binding affinity of native HS and synthetic HS glycomimetics (M1, D1, D2, D3, and T1) to these proteins using biolayer interferometry (BLI). The terminal amino groups of the sugars were immobilized onto the sensor surface using standard amine coupling chemistry, and binding assays were performed by introducing the proteins as analytes at varying concentrations (Figure A). The equilibrium dissociation constants (K D) were determined using the steady-state affinity curve fitting.

AT-III = AT-III (Homo sapiens, UniProt P01008); experiment: as above
Description: as §3

FGF-2 [7] = molecular target: T1, FGF-2; experiment: as above; conditions: steady-state affinity curve fitting
Description: as §3

NGF = NGF (Homo sapiens, UniProt P01138); experiment: as above; conditions: steady-state affinity curve fitting
Description: as §3

T1 sequence (P09038 134-288 limits assumed, species assumed): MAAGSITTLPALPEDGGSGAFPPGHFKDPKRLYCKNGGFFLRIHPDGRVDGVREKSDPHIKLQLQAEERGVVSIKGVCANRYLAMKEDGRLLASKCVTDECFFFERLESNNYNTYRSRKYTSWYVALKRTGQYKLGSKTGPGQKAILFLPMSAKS
T2 sequence (P05230 whole entry, species assumed): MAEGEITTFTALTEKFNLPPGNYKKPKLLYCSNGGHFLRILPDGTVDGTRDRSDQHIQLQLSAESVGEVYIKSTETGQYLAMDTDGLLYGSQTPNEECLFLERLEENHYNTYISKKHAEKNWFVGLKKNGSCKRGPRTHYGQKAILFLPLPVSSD
Sequence of NGF (P01138 122-241): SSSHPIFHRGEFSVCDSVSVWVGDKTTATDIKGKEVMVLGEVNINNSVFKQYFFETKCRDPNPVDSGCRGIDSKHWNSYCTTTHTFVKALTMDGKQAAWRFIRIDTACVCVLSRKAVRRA
Sequence of AT-III (P01008 33-464): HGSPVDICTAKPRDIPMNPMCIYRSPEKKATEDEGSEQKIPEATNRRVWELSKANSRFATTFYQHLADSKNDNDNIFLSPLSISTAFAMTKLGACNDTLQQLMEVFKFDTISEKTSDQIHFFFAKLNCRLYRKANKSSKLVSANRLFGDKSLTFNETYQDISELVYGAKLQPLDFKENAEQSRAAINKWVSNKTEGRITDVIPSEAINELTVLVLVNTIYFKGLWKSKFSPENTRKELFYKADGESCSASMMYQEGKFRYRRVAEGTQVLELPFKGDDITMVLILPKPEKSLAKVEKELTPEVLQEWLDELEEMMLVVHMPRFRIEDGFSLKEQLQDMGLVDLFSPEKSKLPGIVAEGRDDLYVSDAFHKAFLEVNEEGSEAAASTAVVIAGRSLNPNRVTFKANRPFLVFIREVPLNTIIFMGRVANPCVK

Compound: CC(=O)N[C@H]1[C@@H](OCCN)O[C@H](COS(=O)(=O)O)[C@@H](O[C@@H]2O[C@@H](C(=O)O)[C@@H](OS(=O)(=O)O)[C@H](O)[C@H]2OS(=O)(=O)O)[C@@H]1O [D2, IdoA2S4S-GlcNAc6S]
- competition with immobilized native HS for FGF-2 binding, signal intensity (FGF-2 [1]; FGF-2 50 nM premixed with varying concentrations): dose-dependent reduction in signal intensity
- IC50 (FGF-2 [1]; FGF-2 50 nM, fixed association time t = 240 s, read-out: Apparent IC50(t), competition with immobilized native HS for FGF-2 binding): 17.9 µM
- total neurite outgrowth per image (average sum of neurite length) (PC12 cells): 541 μm
- number of neurites emerging from the cell body ([2]; control 3.6 ± 0.22): 3.8 ± 0.23 neurites per neuron
- length of the longest neurite ([2]; control 38 ± 2): 43 ± 3 μm
- aPTT mean clotting time ([3]; citrated pooled rat plasma, highest concentration tested, control 22 s): 24 s
- anticoagulant activity ([3]; conclusion from aPTT and chromogenic assays): without any anticoagulant activity
- FGF-1 Sample Tm (FGF-1 [4]): 45.0 °C and 45.0 ± 0.4 °C
- FGF-2 Sample Tm (FGF-2 [5]): 52.4 °C and 52.4 ± 1.2 °C
- mean normalized β-tubulin III fluorescence intensity (SH-SY5Y cells): 2.15
- Kd (FGF-1 [6]): 0.78 µM
- binding to AT-III (AT-III): no measurable binding
- Kd (FGF-2 [7]): 0.67 µM
- Kd (NGF; read-out: KD for NGF, two-site binding model, first value): 2.6 µM
- Kd (NGF; read-out: KD for NGF, two-site binding model, second value): 468 µM

Source: publication PMC12715788, “Unraveling the Potential of Small Molecule Heparin Glycomimetics in Neuroregenerative Therapeutics” (Journal of the American Chemical Society, 2025)
